Where two headings read alike, the source gives them in different places.
Tests used:
[1] = system: Mouse CIA arthritis model; assay: Mouse CIA arthritis model test; assay type: in vivo, DBA/1 mice; details: 30 mg/kg oral, twice a day for 21 days
Procedure: (1) Preparation of Type II Collagen/Complete Freund's Adjuvant
Preparation of acetic acid: 2N acetic acid was diluted to 100 mM, filtered with 0.22 μm filter membrane, and stored at 4° C.
Preparation of bovine type II collagen solution: bovine type II collagen (CII) was dissolved in 100 mM acetic acid solution and stored at 4° C. overnight. A final concentration of collagen was 8 mg/mL.
Preparation of emulsion: the CII solution stored overnight was mixed with an equal volume of complete Freund's adjuvant, and homogenized on ice by a high-speed homogenizer at 30,000 rpm for approximately 60 min, until the solution formed a stable emulsion.
After DBA/1 mice were anesthetized with isoflurane, 50 μl of prepared collagen emulsion (containing 200 micrograms of CII) was injected subcutaneously in the tail (2-3 cm from the base of the tail) for immunization. The day of the primary immunization was recorded as day 0, and the following days were recorded sequentially. On day 21, the same volume of collagen emulsion was injected into the tail in the same way. Mice in the normal group were not immunized.
On day 21, the mice that had been induced to have arthritis were randomly grouped according to their body weights, such that the average body weight of each group was consistent, and they were randomly divided into 6 treatment groups for administration, with 10 mice in each group.
G1 group included normal mice without being treated; G2 group was given a blank vehicle; G3 to G7 groups were administrated with the compound at a dose of 30 mg/kg, twice a day for 21 days. The volume of oral administration was 10 mL/kg.
After the enhanced immunization, the disease incidence of the mice was observed every day. When the mice began to develop symptoms (clinical symptoms of arthritis emerged), the symptoms were graded as 0 to 4 according to the different degrees of pathological changes (redness, joint deformation), where the highest score for each limb was 4, and the highest score for each animal was 16. The mice were graded at least three times a week.
The area under curve (AUC) of clinical scores of each group from day 21 to day 42 was calculated, and the inhibition rate % of the clinical score AUC of the administration group was calculated:
Inhibition rate %=1−(administration group AUC/blank vehicle group AUC)*100%
The experimental data are expressed as Mean±standard error (Mean±SEM), and the clinical scores were analyzed with One-way ANOVA, where p<0.05 was considered to be a significant difference.

PDE4B = biological target: T1, PDE4B (Homo sapiens, UniProt Q07343); assay: PDE4B enzyme activity assay (PDE-Glo Phosphodiesterase Assay Kit); assay type: biochemical
T1 construct: purchased Enzo Life Sciences BML-SE522-0020
T1 sequence (Q07343 whole entry): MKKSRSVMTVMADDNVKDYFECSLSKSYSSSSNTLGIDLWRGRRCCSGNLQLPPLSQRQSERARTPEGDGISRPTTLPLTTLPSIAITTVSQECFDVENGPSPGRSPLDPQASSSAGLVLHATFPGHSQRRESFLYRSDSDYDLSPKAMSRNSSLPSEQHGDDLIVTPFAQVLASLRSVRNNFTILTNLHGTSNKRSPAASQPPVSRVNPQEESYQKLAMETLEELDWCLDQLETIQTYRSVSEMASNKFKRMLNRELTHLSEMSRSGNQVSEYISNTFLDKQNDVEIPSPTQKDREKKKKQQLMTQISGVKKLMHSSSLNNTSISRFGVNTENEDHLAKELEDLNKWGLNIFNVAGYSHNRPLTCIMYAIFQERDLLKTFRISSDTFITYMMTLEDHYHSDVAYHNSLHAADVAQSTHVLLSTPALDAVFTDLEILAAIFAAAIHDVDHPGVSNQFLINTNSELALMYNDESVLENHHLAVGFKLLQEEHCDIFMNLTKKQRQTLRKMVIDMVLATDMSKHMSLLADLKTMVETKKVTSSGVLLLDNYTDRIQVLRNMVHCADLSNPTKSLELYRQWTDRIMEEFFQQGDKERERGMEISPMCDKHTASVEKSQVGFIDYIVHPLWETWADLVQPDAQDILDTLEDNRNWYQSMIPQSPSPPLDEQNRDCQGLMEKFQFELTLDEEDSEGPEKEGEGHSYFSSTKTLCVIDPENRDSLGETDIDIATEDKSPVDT
How it was run: (§1)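 Recombinant human PDE4B (1 ng/μl working solution) or PDE4D (4 ng/μl working solution) preincubated 5 min at RT with compound, then reacted 20 min with cAMP (2 μM in added solution). PDE-Glo termination/detection and Kinase-Glo steps followed; luminescence read and IC50 fitted.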

[2] = system: LPS-stimulated TNF-α release; assay: LPS-stimulated TNF-α release in mice; assay type: in vivo, Balb/c mice; details: Mus musculus, oral 50 mg/kg (positive control 100 mg/kg), 1 mg/kg LPS i.p.
Procedure: 18 Balb/c mice (6 to 8 weeks) were randomly assigned to a blank group, a model group, and an administration group, 6 mice in each group. A vehicle (blank group, model group) or 50 mg/kg compound (administration group, where the dose for the positive control group was 100 mg/kg) was orally administrated. 30 min after the oral administration, PBS (blank group) or 1 mg/kg LPS (model group and administration group) was injected intraperitoneally. 90 min or 120 min after the intraperitoneal injection, blood was collected from the hearts of the mice, and still stood at 2-8° C. for 4 hours, and centrifuged at 5000 rpm for 10 min to collect the serum. The serum was stored at −80° C. for testing.
The serum TNF-α level was tested using a mouse TNF-α detection kit (Mouse TNFa ELISA kit: Biolegend, Cat: 430904). The inhibitory activity of the compounds against the TNF-α release was calculated based on the serum TNF-α level.
Inhibitory activity of compound %={1−(TNFα concentration of administration group−TNFα concentration of blank group)/(TNFα concentration of model group−TNFα concentration of blank group)}×100%.

PDE4D = biological target: T2, PDE4D (Homo sapiens, UniProt Q08499); assay: PDE4D enzyme activity assay (PDE-Glo Phosphodiesterase Assay Kit); assay type: biochemical
T2 construct: purchased Enzo Life Sciences BML-SE523-0020
T2 sequence (Q08499 whole entry): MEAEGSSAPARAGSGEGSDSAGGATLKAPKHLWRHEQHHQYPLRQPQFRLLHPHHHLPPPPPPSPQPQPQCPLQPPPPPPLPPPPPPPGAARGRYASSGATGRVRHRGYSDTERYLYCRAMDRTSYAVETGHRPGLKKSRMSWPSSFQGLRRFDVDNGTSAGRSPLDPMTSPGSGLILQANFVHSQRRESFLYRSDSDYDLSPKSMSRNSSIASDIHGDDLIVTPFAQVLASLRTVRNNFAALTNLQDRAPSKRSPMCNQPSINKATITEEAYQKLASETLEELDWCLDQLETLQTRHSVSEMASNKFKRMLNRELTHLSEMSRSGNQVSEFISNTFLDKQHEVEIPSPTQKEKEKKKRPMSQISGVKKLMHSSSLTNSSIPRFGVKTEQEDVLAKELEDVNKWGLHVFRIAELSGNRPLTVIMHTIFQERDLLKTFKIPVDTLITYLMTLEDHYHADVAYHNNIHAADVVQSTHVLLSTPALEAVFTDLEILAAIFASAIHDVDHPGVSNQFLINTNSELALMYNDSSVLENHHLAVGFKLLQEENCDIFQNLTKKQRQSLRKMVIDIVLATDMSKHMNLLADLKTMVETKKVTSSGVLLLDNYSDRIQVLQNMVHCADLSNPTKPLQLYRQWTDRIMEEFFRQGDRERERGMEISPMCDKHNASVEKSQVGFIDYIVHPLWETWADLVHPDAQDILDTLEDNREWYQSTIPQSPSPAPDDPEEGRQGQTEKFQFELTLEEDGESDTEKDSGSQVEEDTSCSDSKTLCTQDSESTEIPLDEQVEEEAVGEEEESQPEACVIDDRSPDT
How it was run: as §1

[3] = system: LPS-induced secretion of TNFα in human PBMCs; assay: LPS-induced secretion of TNFα in human PBMCs; assay type: cell-based; details: Homo sapiens, PBMC, 24 h, LPS 10 ng/ml
How it was run: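 PBMCs isolated by Lymphoprep density centrifugation were seeded at 5×10^4/well in RPMI1640 + 10% FBS and given compound, with 30 min pre-incubation, then stimulated with 10 ng/ml LPS (final). After 24 h, supernatant TNF-α was measured by ELISA kit.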

IC50 (PDE4B): 1.87 nM | IC50 (PDE4D)/IC50 (PDE4B) (PDE4B; selectivity ratio): 1.37 | IC50 (PDE4D): 2.56 nM
Structure (SMILES): CCc1ccc(N2CC(Oc3cc([C@@H]4CN(C(=O)[C@@H](O)CO)C[C@@]4(C)[C@@H](C)O)ccc3OC)C2)nc1 [Compound 031, (S)-1-((3S,4S)-4-(3-((1-(5-ethylpyridin-2-yl)azetidin-3-yl)oxy)-4-methoxyphenyl)-3-((R)-1-hydroxyethyl)-3-methylpyrrolidin-1-yl)-2,3-dihydroxypropan-1-one]
inhibition rate based on clinical score AUC ([1]; AUC day 21 to day 42): 85.0% | Clinical score (endpoint) ([1]; day 42, highest score 16): 2.1 | inhibition in vivo at 50 mg/kg ([2]; 1.5 h, blood 90 min after LPS, read-out: Inhibition rate (%) of LPS-stimulated TNF-α release, 90 min): 64.8% | inhibition in vivo at 50 mg/kg ([2]; 2 h, blood 120 min after LPS, read-out: Inhibition rate (%) of LPS-stimulated TNF-α release, 120 min): 78.3% | IC50 [3]: 0.7 nM
